ChEMBL document CHEMBL1150007, “Novel indolactam-based inhibitors of matrix metalloproteinases” (Bioorg Med Chem Lett, 1995)

Key:
[1] = target: Neutrophil collagenase (Homo sapiens, UniProt P22894); assay: Inhibition of human Matrix metalloprotease-8
[2] = target: 72 kDa type IV collagenase (Homo sapiens, UniProt P08253); assay: Inhibition of human […], matrix metalloprotease-2
[3] = target: T1, Interstitial collagenase (Homo sapiens, UniProt P03956); assay: Inhibition of human fibroblast collagenase, matrix metalloprotease-1
T1 sequence (P03956 whole entry): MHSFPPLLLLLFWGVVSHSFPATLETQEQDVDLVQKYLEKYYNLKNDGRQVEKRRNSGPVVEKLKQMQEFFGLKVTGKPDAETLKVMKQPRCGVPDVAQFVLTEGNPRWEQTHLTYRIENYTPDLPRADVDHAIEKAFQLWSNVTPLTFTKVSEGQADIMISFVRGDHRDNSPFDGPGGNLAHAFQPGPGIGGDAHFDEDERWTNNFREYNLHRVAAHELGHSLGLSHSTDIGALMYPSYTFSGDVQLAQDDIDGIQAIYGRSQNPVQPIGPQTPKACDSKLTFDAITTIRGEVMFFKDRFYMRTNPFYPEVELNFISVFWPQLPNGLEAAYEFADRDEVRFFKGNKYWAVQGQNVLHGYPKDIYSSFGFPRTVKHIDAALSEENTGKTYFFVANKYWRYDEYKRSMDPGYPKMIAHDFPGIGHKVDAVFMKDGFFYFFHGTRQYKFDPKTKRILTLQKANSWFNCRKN

[4] = target: T2, Matrilysin (Homo sapiens, UniProt P09237); assay: Inhibition of Matrix metalloprotease-7
T2 sequence (P09237 whole entry): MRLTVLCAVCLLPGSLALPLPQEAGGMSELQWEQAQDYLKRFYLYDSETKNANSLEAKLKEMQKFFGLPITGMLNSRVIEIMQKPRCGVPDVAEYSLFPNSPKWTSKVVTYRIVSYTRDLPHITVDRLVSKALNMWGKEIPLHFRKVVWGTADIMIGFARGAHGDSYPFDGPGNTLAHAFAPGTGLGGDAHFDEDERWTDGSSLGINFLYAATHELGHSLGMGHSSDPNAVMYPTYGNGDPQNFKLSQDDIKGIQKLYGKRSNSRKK

[5] = target: Stromelysin-1 (Homo sapiens, UniProt P08254); assay: Inhibition of human fibroblast stromelysin, matrix metalloprotease-3
Sequence of Stromelysin-1 (P08254 whole entry): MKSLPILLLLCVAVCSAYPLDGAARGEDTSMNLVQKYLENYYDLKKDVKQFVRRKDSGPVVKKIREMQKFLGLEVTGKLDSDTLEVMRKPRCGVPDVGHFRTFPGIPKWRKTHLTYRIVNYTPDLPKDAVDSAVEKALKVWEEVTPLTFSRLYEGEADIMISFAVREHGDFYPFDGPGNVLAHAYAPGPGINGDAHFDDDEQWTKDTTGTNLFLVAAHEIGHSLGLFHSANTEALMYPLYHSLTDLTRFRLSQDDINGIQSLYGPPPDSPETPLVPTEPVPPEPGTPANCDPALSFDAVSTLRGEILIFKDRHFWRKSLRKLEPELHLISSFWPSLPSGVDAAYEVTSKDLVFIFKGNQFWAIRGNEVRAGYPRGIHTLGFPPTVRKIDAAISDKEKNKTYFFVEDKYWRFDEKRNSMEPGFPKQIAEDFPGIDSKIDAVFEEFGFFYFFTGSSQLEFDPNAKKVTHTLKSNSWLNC

Sequence of Neutrophil collagenase (P22894 whole entry): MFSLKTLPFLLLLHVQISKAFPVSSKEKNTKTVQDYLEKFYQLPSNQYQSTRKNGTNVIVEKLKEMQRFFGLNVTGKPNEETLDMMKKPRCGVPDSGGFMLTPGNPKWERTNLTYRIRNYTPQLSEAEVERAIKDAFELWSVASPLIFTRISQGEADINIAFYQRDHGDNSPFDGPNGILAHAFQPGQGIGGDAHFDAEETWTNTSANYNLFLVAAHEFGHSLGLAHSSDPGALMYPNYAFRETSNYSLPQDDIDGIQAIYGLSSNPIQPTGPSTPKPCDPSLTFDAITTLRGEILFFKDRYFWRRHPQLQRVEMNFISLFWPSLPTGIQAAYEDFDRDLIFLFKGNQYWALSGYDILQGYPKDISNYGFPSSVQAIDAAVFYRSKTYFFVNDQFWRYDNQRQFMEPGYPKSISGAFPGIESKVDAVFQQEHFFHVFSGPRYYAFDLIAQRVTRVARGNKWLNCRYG
Sequence of 72 kDa type IV collagenase (P08253 whole entry): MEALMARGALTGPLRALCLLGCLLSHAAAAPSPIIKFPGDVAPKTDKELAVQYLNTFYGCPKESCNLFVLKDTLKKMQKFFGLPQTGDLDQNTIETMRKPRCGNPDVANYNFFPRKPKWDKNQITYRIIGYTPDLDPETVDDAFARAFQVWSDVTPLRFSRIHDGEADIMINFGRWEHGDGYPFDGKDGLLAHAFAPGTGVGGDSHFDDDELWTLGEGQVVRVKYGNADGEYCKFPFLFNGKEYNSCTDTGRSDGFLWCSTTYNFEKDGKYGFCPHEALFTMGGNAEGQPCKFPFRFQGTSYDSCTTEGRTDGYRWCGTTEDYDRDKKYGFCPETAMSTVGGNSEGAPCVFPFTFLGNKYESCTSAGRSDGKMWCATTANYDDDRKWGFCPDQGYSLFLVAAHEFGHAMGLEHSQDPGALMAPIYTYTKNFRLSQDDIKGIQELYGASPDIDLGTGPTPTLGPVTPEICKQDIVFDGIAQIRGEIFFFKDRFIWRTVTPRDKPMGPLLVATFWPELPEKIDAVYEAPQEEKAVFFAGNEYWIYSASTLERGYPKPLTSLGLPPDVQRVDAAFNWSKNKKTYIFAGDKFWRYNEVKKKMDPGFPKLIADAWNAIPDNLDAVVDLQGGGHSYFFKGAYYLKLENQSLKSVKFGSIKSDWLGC

Compound | Ki [1] [nM] | Ki [2] [nM] | Ki [3] [nM] | Ki [4] [nM] | Ki [5] [nM]
CCCCCCNC(=O)[C@H](Cc1c[nH]c2ccccc12)NC(=O)[C@@H](CC(=O)O)CC(C)C | 163 | 472 | 171 | > 620 | 
CCCCCCNC(=O)[C@H](Cc1c[nH]c2ccccc12)NC(=O)[C@H](CC(C)C)CP(=O)(O)CSc1ccc2ccccc2n1 | 102 | 300 | 432 |  | 6580

Further compounds by falling Ki [3], results first:

Ki [1] [nM] | Ki [2] [nM] | Ki [3] [nM] | Ki [4] [nM] | Compound | Ki [5] [nM]
 |  | 1500 |  | CNC(=O)[C@H](Cc1ccccc1)NC(=O)[C@H](CC(C)C)[C@H](CSc1cccs1)C(=O)O | 
4 | 14 | 5 |  | CC(C)C[C@H](CP(=O)(O)CSc1ccc2ccccc2n1)C(=O)N[C@H]1Cc2cn(c3ccccc23)CCCCCCNC1=O | 806
0.5 | 0.3 | 3 |  | CCCCCCNC(=O)[C@H](Cc1c[nH]c2ccccc12)NC(=O)[C@@H](CC(=O)NO)CC(C)C | 
